Active and inactive are the calls of the source. No cut-off for these calls is given here.
Legend:
Bacillus subtilis = experiment: Antibacterial activity against Bacillus subtilis KCTC 3068 incubated for 24 hrs by CLSI based broth microdilution method; assay type: functional
Escherichia coli [1] = experiment: Antibacterial activity against Escherichia coli KCTC 1682 incubated for 24 hrs in presence of FeCl3 by CLSI based broth microdilution method; assay type: functional
Staphylococcus aureus [2] = experiment: Antibacterial activity against methicillin-resistant Staphylococcus aureus CCARM 3095 incubated for 24 hrs by CLSI based broth microdilution method; assay type: functional
Escherichia coli [3] = experiment: Antibacterial activity against Escherichia coli KCTC 1682 incubated for 24 hrs by CLSI based broth microdilution method; assay type: functional
Pseudomonas aeruginosa [4] = experiment: Antibacterial activity against Pseudomonas aeruginosa KCTC 1637 incubated for 24 hrs by CLSI based broth microdilution method; assay type: functional
Salmonella typhimurium = experiment: Antibacterial activity against Salmonella typhimurium KCTC 1926 incubated for 24 hrs by CLSI based broth microdilution method; assay type: functional, Salmonella enterica subsp. enterica serovar Typhimurium; details: Salmonella enterica
Pseudomonas aeruginosa [5] = experiment: Antibacterial activity against multidrug-resistant Pseudomonas aeruginosa CCARM 2095 incubated for 24 hrs by CLSI based broth microdilution method; assay type: functional
Acinetobacter baumannii [6] = experiment: Antibacterial activity against multidrug-resistant Acinetobacter baumannii 329-97 incubated for 24 hrs by CLSI based broth microdilution method; assay type: functional
Acinetobacter baumannii [7] = experiment: Antibacterial activity against carbapenem-resistant Acinetobacter baumannii CCARM 12005 incubated for 24 hrs by CLSI based broth microdilution method; assay type: functional
[8] = Hemolytic activity in sheep RBC incubated for 1 hr by absorbance based assay; assay type: toxicity, cell-based, Ovis aries; details: erythrocyte
Escherichia coli [9] = experiment: Antibacterial activity against Escherichia coli KCTC 1682 incubated for 24 hrs in presence of MgCl2 by CLSI based broth microdilution method; assay type: functional
Escherichia coli [10] = experiment: Antibacterial activity against Escherichia coli KCTC 1682 incubated for 24 hrs in presence of CaCl2 by CLSI based broth microdilution method; assay type: functional
[11] = Effect on secondary structure of drug in TFE assessed as fold increase in formation of alpha-helical conformation at 150 uM by CD analysis relative to HVF18; assay type: physicochemical
[12] = Effect on secondary structure of drug in LPS assessed as fold increase in formation of alpha-helical conformation at 150 uM by CD analysis relative to HVF18; assay type: physicochemical
Escherichia coli [13] = experiment: Induction of cytoplasmic membrane potential in Escherichia coli KCTC 1682 at 0.5 to 1 times MIC measured for 500 secs by diSC3-5 dye based analysis; assay type: functional, organism-based; details: time 500.0 sec
Escherichia coli [14] = experiment: Induction of inner membrane permeabilization in Escherichia coli KCTC 1682 at MIC by PI staining based flow cytometry (reference value: 1.51 %); assay type: functional
Escherichia coli [15] = experiment: Induction of morphological change in Escherichia coli KCTC 1682 assessed as distorted irregular cells at MIC incubated for 4 hrs by SEM analysis; assay type: functional, organism-based
Pseudomonas aeruginosa [16] = experiment: Inhibition of biofilm formation in multi-drug resistant Pseudomonas aeruginosa CCARM 2095 at 4 to 8 uM by crystal violet staining based analysis relative to control; assay type: functional; details: dose 4-8 µM
Pseudomonas aeruginosa [17] = experiment: Inhibition of biofilm formation in multi-drug resistant Pseudomonas aeruginosa CCARM 2095 at 1 to 128 uM by crystal violet staining based analysis; assay type: functional, organism-based; details: dose 1-128 µM
Staphylococcus aureus [18] = experiment: Synergistic antibacterial activity against methicillin-resistant Staphylococcus aureus CCARM 3089 assessed as MIC of Chloramphenicol incubated for 24 hrs by broth microdilution method; assay type: functional
Staphylococcus aureus [19] = experiment: Synergistic antibacterial activity against methicillin-resistant Staphylococcus aureus CCARM 3089 assessed as fractional inhibitory concentration index by measuring ratio of MIC of Ciprofloxacin in presence of compound to MIC to Ciprofloxacin incubated for 24 hrs by broth microdilution method; assay type: functional
Staphylococcus aureus [20] = experiment: Synergistic antibacterial activity against methicillin-resistant Staphylococcus aureus CCARM 3089 assessed as fractional inhibitory concentration index by measuring ratio of MIC of compound in presence of Ciprofloxacin to MIC to compound incubated for 24 hrs by broth microdilution method; assay type: functional
Staphylococcus aureus [21] = experiment: Synergistic antibacterial activity against methicillin-resistant Staphylococcus aureus CCARM 3089 assessed as MIC of Oxacillin incubated for 24 hrs by broth microdilution method; assay type: functional
Staphylococcus aureus [22] = experiment: Synergistic antibacterial activity against methicillin-resistant Staphylococcus aureus CCARM 3089 incubated for 24 hrs in presence of Oxacillin by broth microdilution method; assay type: functional
Pseudomonas aeruginosa [23] = experiment: Antibacterial activity against multi-drug resistant Pseudomonas aeruginosa CCARM 2095 incubated for 24 hrs by broth microdilution method; assay type: functional
Pseudomonas aeruginosa [24] = experiment: Synergistic antibacterial activity against multi-drug resistant Pseudomonas aeruginosa CCARM 2095 assessed as fractional inhibitory concentration index by measuring ratio of MIC of Chloramphenicol in presence of compound to MIC to Chloramphenicol incubated for 24 hrs by broth microdilution method; assay type: functional
Pseudomonas aeruginosa [25] = experiment: Synergistic antibacterial activity against multi-drug resistant Pseudomonas aeruginosa CCARM 2095 incubated for 24 hrs in presence of Chloramphenicol by broth microdilution method; assay type: functional
Pseudomonas aeruginosa [26] = experiment: Synergistic antibacterial activity against multi-drug resistant Pseudomonas aeruginosa CCARM 2095 assessed as fractional inhibitory concentration index by measuring ratio of MIC of compound in presence of Chloramphenicol to MIC to compound incubated for 24 hrs by broth microdilution method; assay type: functional
Pseudomonas aeruginosa [27] = experiment: Synergistic antibacterial activity against multi-drug resistant Pseudomonas aeruginosa CCARM 2095 assessed as fractional inhibitory concentration index by measuring ratio of MIC of Ciprofloxacin in presence of compound to MIC to Ciprofloxacin incubated for 24 hrs by broth microdilution method; assay type: functional
Pseudomonas aeruginosa [28] = experiment: Synergistic antibacterial activity against multi-drug resistant Pseudomonas aeruginosa CCARM 2095 incubated for 24 hrs in presence of Ciprofloxacin by broth microdilution method; assay type: functional
Pseudomonas aeruginosa [29] = experiment: Synergistic antibacterial activity against multi-drug resistant Pseudomonas aeruginosa CCARM 2095 assessed as fractional inhibitory concentration index by measuring ratio of MIC of compound in presence of Ciprofloxacin to MIC to compound incubated for 24 hrs by broth microdilution method; assay type: functional
Pseudomonas aeruginosa [30] = experiment: Synergistic antibacterial activity against multi-drug resistant Pseudomonas aeruginosa CCARM 2095 assessed as MIC of Oxacillin incubated for 24 hrs by broth microdilution method; assay type: functional
Pseudomonas aeruginosa [31] = experiment: Synergistic antibacterial activity against multi-drug resistant Pseudomonas aeruginosa CCARM 2095 assessed as fractional inhibitory concentration index incubated for 24 hrs in presence of Oxacillin by broth microdilution method; assay type: functional
RAW264.7 [32] = experiment: Anti-inflammatory activity in mouse RAW264.7 cells assessed as inhibition of LPS-induced NO production at 2.5 uM pretreated for 1 hr followed by LPS treatment for 16 hrs by Griess assay relative to control; assay type: functional; details: time 17 hrs
RAW264.7 [33] = experiment: Anti-inflammatory activity in mouse RAW264.7 cells assessed as decrease in LPS-induced TNF-alpha level at 2.5 uM pretreated for 1 hr followed by LPS treatment for 16 hrs by ELISA relative to control; assay type: functional; details: time 17 hrs
RAW264.7 [34] = experiment: Anti-inflammatory activity in mouse RAW264.7 cells assessed as decrease in LPS-induced IL-6 level at 5 uM pretreated for 1 hr followed by LPS treatment for 16 hrs by ELISA relative to control; assay type: functional; details: time 17 hrs
RAW264.7 [35] = experiment: Anti-inflammatory activity in mouse RAW264.7 cells assessed as decrease in LPS-induced ROS production at 2.5 uM pretreated for 1 hr followed by LPS treatment for 16 hrs by DCFDA staining based analysis relative to control; assay type: functional; details: time 17 hrs

## H-GVFRLKKWIKKVIKKWGK-NH2
Bacillus subtilis
  MIC: 4 µM
Escherichia coli [1]
  MIC: 32 µM
Staphylococcus aureus [2]
  MIC: 8 µM
Escherichia coli [3]
  MIC: 16 µM
Pseudomonas aeruginosa [4]
  MIC: 8 µM
Salmonella typhimurium
  MIC: 4 µM
Pseudomonas aeruginosa [5]
  MIC: 8 µM
Acinetobacter baumannii [6]
  MIC: 2 µM
Acinetobacter baumannii [7]
  MIC: 4 µM
[8]
  HC10: > 256 µM
Escherichia coli [9]
  MIC: 32 µM
Escherichia coli [10]
  MIC: 32 µM
[11]
  fold change (FC): ~ 5
[12]
  fold change (FC): ~ 5
Escherichia coli [13]
  Activity: Active
Escherichia coli [14]
  Activity: ~100%
Escherichia coli [15]
  Activity: Active
Pseudomonas aeruginosa [16]
  inhibition (INH): >50%
Pseudomonas aeruginosa [17]
  Activity: Active; Superior Activity Compared To Ll-37
Staphylococcus aureus [18]
  MIC: 256 µM
Staphylococcus aureus [19]
  FIC: 0.5
Staphylococcus aureus [20]
  FIC: 0.25
Staphylococcus aureus [21]
  MIC: 512 µM
Staphylococcus aureus [22]
  MIC: 0.5 µM
Pseudomonas aeruginosa [23]
  MIC: 8 µM
Pseudomonas aeruginosa [24]
  FIC: 0.125
Pseudomonas aeruginosa [25]
  MIC: 2 µM
Pseudomonas aeruginosa [26]
  FIC: 0.25
Pseudomonas aeruginosa [27]
  FIC: 0.125
Pseudomonas aeruginosa [28]
  MIC: 4 µM
Pseudomonas aeruginosa [29]
  FIC: 0.5
Pseudomonas aeruginosa [30]
  MIC: 128 µM
Pseudomonas aeruginosa [31]
  fractional inhibitory concentration index (FICI): 0.281
RAW264.7 [32]
  inhibition at 2.5 µM: 80.7%
RAW264.7 [33]
  inhibition at 2.5 µM: 2.6%
RAW264.7 [34]
  inhibition at 5 µM: 44.4%
RAW264.7 [35]
  inhibition at 2.5 µM: 14.9%

## H-GVFRLKKWLKKVKKWGK-NH2
Bacillus subtilis
  MIC: 4 µM
Escherichia coli [1]
  MIC: 32 µM
Staphylococcus aureus [2]
  MIC: 8 µM
Escherichia coli [3]
  MIC: 16 µM
Pseudomonas aeruginosa [4]
  MIC: 8 µM
Salmonella typhimurium
  MIC: 8 µM
Pseudomonas aeruginosa [5]
  MIC: 8 µM
Acinetobacter baumannii [6]
  MIC: 4 µM
Acinetobacter baumannii [7]
  MIC: 4 µM
[8]
  HC10: > 256 µM
Escherichia coli [9]
  MIC: 32 µM
Escherichia coli [10]
  MIC: 16 µM
[11]
  fold change (FC): ~ 5
[12]
  fold change (FC): ~ 5
Escherichia coli [13]
  Activity: Active
Escherichia coli [14]
  Activity: ~100%
Escherichia coli [15]
  Activity: Active
Pseudomonas aeruginosa [16]
  inhibition (INH): >50%
Pseudomonas aeruginosa [17]
  Activity: Active; Superior Activity Compared To Ll-37
Staphylococcus aureus [18]
  MIC: 512 µM
Staphylococcus aureus [19]
  FIC: 0.5
Staphylococcus aureus [20]
  FIC: 0.5
Staphylococcus aureus [21]
  MIC: 512 µM
Staphylococcus aureus [22]
  MIC: 0.5 µM
Pseudomonas aeruginosa [23]
  MIC: 8 µM
Pseudomonas aeruginosa [24]
  FIC: 0.125
Pseudomonas aeruginosa [25]
  MIC: 2 µM
Pseudomonas aeruginosa [26]
  FIC: 0.25
Pseudomonas aeruginosa [27]
  FIC: 0.25
Pseudomonas aeruginosa [28]
  MIC: 4 µM
Pseudomonas aeruginosa [29]
  FIC: 0.5
Pseudomonas aeruginosa [30]
  MIC: 128 µM
Pseudomonas aeruginosa [31]
  fractional inhibitory concentration index (FICI): 0.281
RAW264.7 [32]
  inhibition at 2.5 µM: 80.3%
RAW264.7 [33]
  inhibition at 2.5 µM: 32.3%
RAW264.7 [34]
  inhibition at 5 µM: 99%
RAW264.7 [35]
  inhibition at 2.5 µM: 38.2%

— ChEMBL document CHEMBL6074662, “Antibacterial, Antibiofilm, and Anti-inflammatory Effects of a Novel Thrombin-Derived Peptide in Sepsis Models: Insights into Underlying Mechanisms” (J Med Chem, 2024)
